Reference: US6303618A, “Cyclin dependent kinase inhibiting purine derivatives” (priority 1997, dated 2001)
Values joined by “and” are separate entries in the source; they are usually repeats but may differ in a detail not shown here. Equal entries are not always repeated. Where two headings read alike, the source gives them in different places.

How the values were obtained:
[1] = target: CDK1 (p34 cdc2)/cyclin B; assay: CDK inhibition assay (histone H1 kinase), CDK1; format: biochemical, starfish (Marthasterias glacialis); settings: for IC50: CDK1; for % inhibition CDK1: at 100 μM
Description: (§1) By way of example, however, a typical protocol is summarised below.
Histone H1 (type III-S (Sigma) 4° C.) 5 mg/ml in buffer C.
[^32 P]ATP […]: Make up using (multiples of) the following proportions:
DMSO cannot exceed 1% in the assay mixture. Inhibitors are added at 1/10 final assay volume and 10×final strength. DMSO stocks must therefore be diluted to 10×final desired concentration in ≤10% DMSO, ≥90% buffer C.
Start reaction in each tube at 30 second intervals by adding
5 ml [^32 P]ATP vortexing and placing in rack in waterbath at 30° C.
Terminate reaction after 10 min at 30 second intervals in tubes in same order by removing
25 ml reaction mix and spotting onto appropriately labelled filter, allowing to dry for 20-30 seconds and transferring to stirring 1% phosphoric acid.
Blank incubation is performed as above but without histone (add […] buffer C instead) Washing blank is […] ATP added directly to filter.

[2] = target: CDK2 (Homo sapiens, UniProt P24941); assay: CDK inhibition assay, CDK2; format: biochemical; settings: for IC50: CDK2, Table 1, read-out: IC50 CDK2
From the text: (§2) Apart from reference compounds, the compounds listed are accompanied by an NU reference or identification code number.
as §1

[3] = target: CDK4 (Homo sapiens, UniProt P11802); assay: CDK inhibition assay, CDK4; format: biochemical; settings: CDK4; Table 1; read-out: IC50 CDK4
From the text: as §2, §1

[4] = read-out: % inhibition CDK2, at 100 μM
[5] = at 100 μM, read-out: % inhibition CDK2

Chain of CDK4 (P11802 whole entry, species assumed): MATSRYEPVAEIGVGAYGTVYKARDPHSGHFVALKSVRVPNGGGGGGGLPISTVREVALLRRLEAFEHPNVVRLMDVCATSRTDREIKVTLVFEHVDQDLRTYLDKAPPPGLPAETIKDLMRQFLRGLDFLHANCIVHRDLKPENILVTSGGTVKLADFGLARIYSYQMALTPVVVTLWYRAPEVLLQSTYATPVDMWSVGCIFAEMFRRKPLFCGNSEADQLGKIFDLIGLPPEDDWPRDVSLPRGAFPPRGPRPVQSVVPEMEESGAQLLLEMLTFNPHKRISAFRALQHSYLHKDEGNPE
Chain of CDK4 (P24385 whole entry partner, species assumed): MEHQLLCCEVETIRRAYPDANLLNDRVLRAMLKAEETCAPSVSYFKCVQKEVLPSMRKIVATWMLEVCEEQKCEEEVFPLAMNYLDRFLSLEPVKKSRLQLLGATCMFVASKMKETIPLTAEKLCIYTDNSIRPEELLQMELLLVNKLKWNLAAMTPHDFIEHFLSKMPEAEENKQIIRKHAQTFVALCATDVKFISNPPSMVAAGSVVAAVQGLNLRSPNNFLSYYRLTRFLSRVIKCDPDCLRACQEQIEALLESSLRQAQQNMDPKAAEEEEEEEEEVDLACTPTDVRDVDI

| SMILES | IC50 ([1]; Table 1) | % inhibition CDK1 [1] | inhibition at 100 µM [2, 4] | also measured |
| --- | --- | --- | --- | --- |
| Nc1nc(OCC2=CCCC2)c2nc[nH]c2n1 [NU2074, O^6-(1'-Cyclopentenyl)methylguanine] | 7 µM |  |  |  |
| COCC(COc1nc(N)nc2nc[nH]c12)OC (stereo not drawn) [NU2044, 2-amino-6-(2,3-dimethoy)propoxypurine] | > 100 µM |  |  |  |
| c1ccc(CCOc2ncnc3nc[nH]c23)cc1 [NU2023, 6-(2-Phenylethyloxy)purine] | 130 µM |  |  |  |
| CC1(C)OCC(COc2nc(N)nc3[nH]cnc23)O1 (stereo not drawn) [NU6021, O^6-(2,2-Dimethyl-1,3-dioxolane-4-methoxy)guanine] |  | 36 ± 9% | 35 ± 6% |  |
| Nc1cc(OCc2ccccc2)nc(N)n1 [NU6038] |  | 3 ± 3% |  | inhibition at 100 µM [2, 5]: 0% |
| Nc1cc(OCC2CC=CCC2)nc(N)n1 (stereo not drawn) [NU6046] |  | 16 ± 13% | 8 ± 1% |  |
| Nc1nc(OCC(=O)c2ccccc2)c2nc[nH]c2n1 [NU2033, O^6-(2-Oxo-2-phenylethyl)guanine] | 100 µM |  |  |  |
| C=CCOc1nc(N)nc2c1ncn2CC=C [NU2036, N^9,O^6 -Diallylguanine] | > 1000 µM |  |  | effect of side chain at N9 or N7, or halo at C2, on activity ([1]; in words, Table 1): activity drastically diminishes |
| CC/C=C/CCOc1nc(N)nc2[nH]cnc12 [NU2067, O^6-(trans-3'-Hexenyl)guanine] | 38 µM |  |  |  |
| Nc1nc(OCC2CCCCO2)c2nc[nH]c2n1 (stereo not drawn) [NU6019, 2-amino-6-(2-tetrahydropyranyl)-methyloxypurine] |  | 51 ± 4% | 44 ± 2% | IC50 [3]: > 100 µM |
| CCCCOc1nc(N)nc2nc[nH]c12 [NU2052, 2-amino-6-n-butoxypurine] | 30 µM |  |  |  |
| CC(=O)COc1nc(N)nc2[nH]cnc12 [NU2035, O^6-(2-Oxopropyl)guanine] | 100 µM |  |  |  |
| Nc1nc(OCC2CCCC2)c2nc[nH]c2n1 [NU2068, O^6 -(Cyclopentyl)methylguanine] | 30 µM |  |  | IC50 [3]: 34 µM |
| CCCOc1nc(N)nc2nc[nH]c12 [NU2045, 2-amino-6-propoxypurine] | 50 µM |  |  |  |
| Nc1nc(N)c(N)c(OCc2ccccc2)n1 [NU6040, 2,5,6-triamino-4-(benzylmethoxy) pyrimidine] |  |  |  | inhibition at 100 µM [2, 5]: 6 ± 10% |
| Nc1nc(OC[C@@H]2CCC(=O)N2)c2nc[nH]c2n1 [NU6031, 2-amino-6-[(S)-2'-oxopyrrolidin-5'-methyl]oxypurine] |  | 26 ± 3% | 20 ± 2% | IC50 [2]: 314 µM; IC50 [3]: > 1000 µM |
| CC1(C)O[C@H]2[C@@H](O1)[C@@H](COc1nc(N)nc3[nH]cnc13)O[C@@H]1OC(C)(C)O[C@@H]12 [NU6017] |  | 10 ± 6% | 3 ± 7% | IC50 [3]: > 100 µM |
| Nc1nc(OCC2CC=CCC2)c2nc[nH]c2n1 (stereo not drawn) [NU2073, O^6-(3'-Cyclohexenyl)methylguanine] | 3.2 µM |  | 87 ± 1% | IC50 [2]: 98 µM and 18.8 µM; IC50 [3]: 53 µM |
| CCCCCCCOc1nc(N)nc2nc[nH]c12 [NU2064, 2-amino-6-heptyloxypurine] | 31 µM |  |  |  |
| C#CCOc1nc(N)nc2[nH]cnc12 [NU2031, O^6 -Propargylguanine] | 60 µM |  |  |  |
| COc1nc(N)nc2nc[nH]c12 [NU2004, 2-amino-6-methoxypurine] | 200 µM |  |  |  |
| Nc1nc(OCC2=CCCCC2)c2nc[nH]c2n1 [NU2076, O^6-(1'-Cyclohexenyl)methylguanine] | 8 µM |  |  |  |
| CCOc1nc(N)nc2nc[nH]c12 [NU2046, 2-amino-6-ethoxypurine] | 100 µM |  |  |  |
| CO[C@@H]1O[C@H](COc2nc(N)nc3[nH]cnc23)[C@H]2OC(C)(C)O[C@@H]12 [NU6012, O^6 -Ribofuranosylguanine] |  | 32% | 16 ± 5% | IC50 [3]: > 100 µM |
| Nc1nc(N)c(N=O)c(OCc2ccccc2)n1 [NU6039, 2,6-diamino-4-(benzylmethoxy) 5-nitrosopyrimidine] |  | 54 ± 9% | 51 ± 2% |  |
| C=CCOc1nc(N)nc2nc[nH]c12 [NU2028, 2-amino-6-allyloxypurine] | 50 µM |  |  | IC50 [3]: > 100 µM |
| Nc1nc(OCc2ccccc2)c2[nH]c(=O)[nH]c2n1 [NU6043, 2-Amino-6-benzyl-8-oxoguanine] |  | 13 ± 9% |  | inhibition at 100 µM [2, 5]: 8 ± 13% |
| Nc1nc(OC[C@H]2CCC(=O)N2)c2nc[nH]c2n1 [NU6032, 2-amino-6-[(R)-2'-oxopyrrolidin-5'-methyl]oxypurine] |  | 54 ± 2% | 37 ± 2% | IC50 [2]: 123 µM; IC50 [3]: > 1000 µM |
